One block for each compound: values may come before it.
Legend:
[1] = tested on: Plasmodium vinckei; experiment: Antimalarial activity against Plasmodium vinckei infected in intraperitoneally dosed mice (Mus musculus); format: functional; conditions: ip
[2] = tested on: Plasmodium falciparum; experiment: Antiplasmodial activity against Plasmodium falciparum; format: functional, organism-based
[3] = tested on: Plasmodium vinckei; experiment: Antimalarial activity against Plasmodium vinckei infected in perorally dosed mice (Mus musculus); format: functional; conditions: po

Compound: COCC/C(SC(=O)C(C)(C)OC(C)=O)=C(\C)N(C=O)CCCCCCCCCCCCN(C=O)/C(C)=C(/CCOC)SC(=O)C(C)(C)OC(C)=O
- ED50 [1]: 60.3 mg/kg
- IC50 [2]: 15.6 nM
- ED50 [3]: 57 mg/kg

Compound: COCC/C(SC(=O)CCC(C)=O)=C(\C)N(C=O)CCCCCCCCCCCCN(C=O)/C(C)=C(/CCOC)SC(=O)CCC(C)=O
- ED50 [1]: 0.15 mg/kg
- IC50 [2]: 1.6 nM
- ED50 [3]: 3 mg/kg

Compound: CCCCOC(=O)S/C(CCOC)=C(/C)N(C=O)CCCCCCCCCCCCN(C=O)/C(C)=C(/CCOC)SC(=O)OCCCC
- IC50 [2]: 5.6 nM
- ED50 [3]: 16 mg/kg

Compound: COCC/C(SC(=O)N1CCCC1=O)=C(\C)N(C=O)CCCCCCCCCCCCN(C=O)/C(C)=C(/CCOC)SC(=O)N1CCCC1=O
- ED50 [1]: 0.9 mg/kg
- IC50 [2]: 29.5 nM
- ED50 [3]: 12 mg/kg

Compound: COCC/C(SC(=O)OC(C)C)=C(\C)N(C=O)CCCCCCCCCCCCN(C=O)/C(C)=C(/CCOC)SC(=O)OC(C)C
- ED50 [1]: < 0.1 mg/kg
- IC50 [2]: 6.2 nM
- ED50 [3]: 6.8 mg/kg

Compound: C/C(=C(\CCOC(=O)C(C)C)SC(=O)C(C)C)N(C=O)CCCCCCCCCCCCN(C=O)/C(C)=C(/CCOC(=O)C(C)C)SC(=O)C(C)C
- ED50 [1]: 1.2 mg/kg
- IC50 [2]: 7 nM
- ED50 [3]: 60 mg/kg

Compound: COCC/C(SC(=O)CCC(=O)OC)=C(\C)N(C=O)CCCCCCCCCCCCN(C=O)/C(C)=C(/CCOC)SC(=O)CCC(=O)OC
- ED50 [1]: 0.4 mg/kg
- IC50 [2]: 5.9 nM
- ED50 [3]: 10 mg/kg

Compound: COCC/C(SC(=O)c1ccc(CN2CCOCC2)cc1)=C(\C)N(C=O)CCCCCCCCCCCCN(C=O)/C(C)=C(/CCOC)SC(=O)c1ccc(CN2CCOCC2)cc1
- ED50 [1]: 3.4 mg/kg
- IC50 [2]: 1.5 nM
- ED50 [3]: 90 mg/kg

Compound: COCC/C(SC(=O)C1CCCN1)=C(\C)N(C=O)CCCCCCCCCCCCN(C=O)/C(C)=C(/CCOC)SC(=O)C1CCCN1 (centres undefined)
- IC50 [2]: 2.8 nM
- ED50 [3]: 17 mg/kg

Compound: COCC/C(SC(=O)C1CCC1)=C(\C)N(C=O)CCCCCCCCCCCCN(C=O)/C(C)=C(/CCOC)SC(=O)C1CCC1
- IC50 [2]: 3.6 nM

Compound: COc1ccc(C(=O)OCC/C(SC(=O)c2ccc(OC)c(OC)c2OC)=C(\C)N(C=O)CCCCCCCCCCCCN(C=O)/C(C)=C(/CCOC(=O)c2ccc(OC)c(OC)c2OC)SC(=O)c2ccc(OC)c(OC)c2OC)c(OC)c1OC
- ED50 [1]: 1.8 mg/kg
- IC50 [2]: 16.5 nM
- ED50 [3]: > 60 mg/kg

Compound: COC(=O)CCC(=O)OCC/C(SC(=O)CCC(=O)OC)=C(\C)N(C=O)CCCCCCCCCCCCN(C=O)/C(C)=C(/CCOC(=O)CCC(=O)OC)SC(=O)CCC(=O)OC
- ED50 [1]: 0.5 mg/kg
- IC50 [2]: 48 nM
- ED50 [3]: 13 mg/kg

Compound: C/C(=C1\CCOC(=O)S1)N(C=O)CCCCCCCCCCCCN(C=O)/C(C)=C1/CCOC(=O)S1
- ED50 [1]: 0.25 mg/kg
- IC50 [2]: 2.2 nM
- ED50 [3]: 5 mg/kg

Compound: COCCc1sc[n+](CCCCCCCCCCCC[n+]2csc(CCOC)c2C)c1C.[Br-].[Br-]
- ED50 [1]: 0.14 mg/kg
- ED50 [3]: 8.1 mg/kg

Compound: C/C=C/CC(=O)S/C(CCOC)=C(/C)N(C=O)CCCCCCCCCCCCN(C=O)/C(C)=C(/CCOC)SC(=O)C/C=C/C
- IC50 [2]: 3.3 nM
- ED50 [3]: 16 mg/kg

Compound: COCC/C(SC(=O)N1CCCC1)=C(\C)N(C=O)CCCCCCCCCCCCN(C=O)/C(C)=C(/CCOC)SC(=O)N1CCCC1
- ED50 [1]: > 5 mg/kg
- IC50 [2]: 310 nM
- ED50 [3]: > 90 mg/kg

Compound: C/C(=C1\CCOC(=S)S1)N(C=O)CCCCCCCCCCCCN(C=O)/C(C)=C1/CCOC(=S)S1
- IC50 [2]: 4400 nM
- ED50 [3]: > 30 mg/kg

Compound: COCC/C(SC(=O)OCCBr)=C(\C)N(C=O)CCCCCCCCCCCCN(C=O)/C(C)=C(/CCOC)SC(=O)OCCBr
- IC50 [2]: 2.7 nM
- ED50 [3]: 13 mg/kg

Compound: Cc1c(CCO)sc[n+]1CCCCCCCCCCCC[n+]1csc(CCO)c1C.[Br-].[Br-] [ALBITIAZOLIUM BROMIDE]
- ED50 [1]: 0.2 mg/kg
- ED50 [3]: 13 mg/kg

Compound: COCC/C(SC(=O)C1CCCC1)=C(\C)N(C=O)CCCCCCCCCCCCN(C=O)/C(C)=C(/CCOC)SC(=O)C1CCCC1
- ED50 [1]: 0.65 mg/kg
- IC50 [2]: 8.2 nM
- ED50 [3]: 17 mg/kg

More lines, main results first:

- IC50 [2]: 3.5 nM
Compound: COCC/C(SC(=O)Oc1ccccc1)=C(\C)N(C=O)CCCCCCCCCCCCN(C=O)/C(C)=C(/CCOC)SC(=O)Oc1ccccc1
- ED50 [1]: 0.3 mg/kg
- ED50 [3]: 24 mg/kg

- IC50 [2]: 2.9 nM
Compound: CCOC(=O)S/C(CCOC)=C(/C)N(C=O)CCCCCCCCCCCCN(C=O)/C(C)=C(/CCOC)SC(=O)OCC
- ED50 [1]: 0.21 mg/kg
- ED50 [3]: 6.3 mg/kg

- IC50 [2]: 2 nM
Compound: COCC/C(SC(=O)C1CC1)=C(\C)N(C=O)CCCCCCCCCCCCN(C=O)/C(C)=C(/CCOC)SC(=O)C1CC1
- ED50 [3]: 16 mg/kg

- IC50 [2]: 1.1 nM
Compound: COCC/C(SC(=O)C(C)C)=C(\C)N(C=O)CCCCCCCCCCCCN(C=O)/C(C)=C(/CCOC)SC(=O)C(C)C
- ED50 [1]: 0.12 mg/kg
- ED50 [3]: 11 mg/kg

- IC50 [2]: 10.6 nM
Compound: COCC/C(SC(=O)OC(C)Cl)=C(\C)N(C=O)CCCCCCCCCCCCN(C=O)/C(C)=C(/CCOC)SC(=O)OC(C)Cl (centres undefined)
- ED50 [1]: 0.11 mg/kg
- ED50 [3]: 13 mg/kg

- IC50 [2]: 4.3 nM
Compound: CCC(=O)S/C(CCOC)=C(/C)N(C=O)CCCCCCCCCCCCN(C=O)/C(C)=C(/CCOC)SC(=O)CC
- ED50 [1]: < 0.1 mg/kg
- ED50 [3]: 12 mg/kg

- IC50 [2]: 2.1 nM
Compound: COCC/C(SC(=O)c1cccnc1)=C(\C)N(C=O)CCCCCCCCCCCCN(C=O)/C(C)=C(/CCOC)SC(=O)c1cccnc1
- ED50 [3]: < 30 mg/kg

- IC50 [2]: 2.3 nM
Compound: COCC/C(SC(=O)COC)=C(\C)N(C=O)CCCCCCCCCCCCN(C=O)/C(C)=C(/CCOC)SC(=O)COC
- ED50 [1]: 1.9 mg/kg
- ED50 [3]: 80 mg/kg

- IC50 [2]: 3500 nM
Compound: C/C(=C(\CCOC(=O)c1ccccc1C)SC(=O)c1ccccc1C)N(C=O)CCCCCCCCCCCCN(C=O)/C(C)=C(/CCOC(=O)c1ccccc1C)SC(=O)c1ccccc1C
- ED50 [1]: > 20 mg/kg
- ED50 [3]: > 180 mg/kg

- IC50 [2]: 1.7 nM
Compound: COCC/C(SC(=O)c1ccccc1)=C(\C)N(C=O)CCCCCCCCCCCCN(C=O)/C(C)=C(/CCOC)SC(=O)c1ccccc1
- ED50 [1]: < 0.5 mg/kg
- ED50 [3]: 15 mg/kg

- IC50 [2]: 110 nM
Compound: COCC/C(SC(=O)c1ccccc1C)=C(\C)N(C=O)CCCCCCCCCCCCN(C=O)/C(C)=C(/CCOC)SC(=O)c1ccccc1C
- ED50 [1]: 0.25 mg/kg
- ED50 [3]: 24 mg/kg

- IC50 [2]: 6.7 nM
Compound: COCC/C(SC(=O)C(C)(C)C)=C(\C)N(C=O)CCCCCCCCCCCCN(C=O)/C(C)=C(/CCOC)SC(=O)C(C)(C)C

- IC50 [2]: 2200 nM
Compound: COCC/C(SC(=O)c1ccccc1C(F)(F)F)=C(\C)N(C=O)CCCCCCCCCCCCN(C=O)/C(C)=C(/CCOC)SC(=O)c1ccccc1C(F)(F)F
- ED50 [1]: > 2.5 mg/kg
- ED50 [3]: > 90 mg/kg

- IC50 [2]: 1.1 nM
Compound: COCC/C(SC(C)=O)=C(\C)N(C=O)CCCCCCCCCCCCN(C=O)/C(C)=C(/CCOC)SC(C)=O

- IC50 [2]: 2.2 nM
Compound: COCC/C(SC(=O)OCCF)=C(\C)N(C=O)CCCCCCCCCCCCN(C=O)/C(C)=C(/CCOC)SC(=O)OCCF
- ED50 [1]: 0.1 mg/kg
- ED50 [3]: 3.8 mg/kg

- IC50 [2]: 1.6 nM
Compound: COCC/C(SC(=O)Cc1ccco1)=C(\C)N(C=O)CCCCCCCCCCCCN(C=O)/C(C)=C(/CCOC)SC(=O)Cc1ccco1
- ED50 [3]: 14 mg/kg

- IC50 [2]: 1.85 nM
Compound: COCC/C(SC(=O)OC)=C(\C)N(C=O)CCCCCCCCCCCCN(C=O)/C(C)=C(/CCOC)SC(=O)OC
- ED50 [1]: 0.072 mg/kg
- ED50 [3]: 1.3 mg/kg

- IC50 [2]: 3.1 nM
Compound: COCC/C(SC(=O)Oc1ccc([N+](=O)[O-])cc1)=C(\C)N(C=O)CCCCCCCCCCCCN(C=O)/C(C)=C(/CCOC)SC(=O)Oc1ccc([N+](=O)[O-])cc1
- ED50 [3]: > 30 mg/kg

- IC50 [2]: 2.4 nM
Compound: COCC/C(SC(=O)CC(C)C)=C(\C)N(C=O)CCCCCCCCCCCCN(C=O)/C(C)=C(/CCOC)SC(=O)CC(C)C
- ED50 [3]: 16 mg/kg

— ChEMBL document CHEMBL1177764, “Exploration of potential prodrug approach of the bis-thiazolium salts T3 and T4 for orally delivered antimalarials” (Bioorg Med Chem Lett, 2010)
